The record followed here is US20060241177A1, “Novel compounds, pharmaceutical compositions containing same, and methods of use for same” (priority 2002, published 2006).

Values after ≈ are worked out from the molar mass of the structure shown. Where two headings read alike, the source gives them in different places. A value given as a limit tells only on which side of the number the result lay.

Format in all cases: cell-based
Assay [1] concerns MCF-7 human breast cancer cells. Briefly: Crystal violet cell growth assay. The conditions noted are these: MCF7, MCF-7 cells, 72 hours, read-out: Cr. Violet (IC50). On the procedure: Crystal Violet Cell Growth Assay
The crystal violet assay measures cell growth but not cytotoxicity. This assay employs crystal violet staining of fixed cells in 96-well plates with subsequent solubilization and measurement of OD490 on a spectrophotometer. The OD490 corresponds to cell growth per unit time measured. Cells are treated with the compounds of interest or vehicle controls and IC50 for each compound is computed.
To measure the cytotoxicity of specific compounds against cancer cells, 5×10^4 MCF-7 human breast cancer cells, obtained from the American Type Culture Collection are plated per well in 24 well plates in DMEM medium with 10% fetal bovine serum, penicillin, and streptomycin. Following overnight culture at 37° C. and 5% CO2, the compounds to be tested, dissolved in DMSO, are added to the wells in 1 μl volume at the following concentrations: 50, 40, 30, 20, and 10 μg/ml in triplicate. Additional concentrations are tested if required. 1 μl of DMSO is added to triplicate wells as the vehicle control. C75 is run at 10, and 5 μg/ml in triplicate as positive controls.
After 72 hours of incubation, cells are stained with 0.5 ml of Crystal Violet stain (0.5% in 25% methanol) in each well. After 10 minutes, wells are rinsed, air dried, and then solubilized with 0.5 ml 10% sodium dodecylsulfate with shaking for 2 hours. Following transfer of 100 μl from each well to a 96-well plate, plates are read at OD490 on a Molecular Devices SpectraMax Plus Spectrophotometer Average OD490 values are computed using SOFTmax Pro Software (Molecular Devices) and IC50 values are determined by linear regression analysis using Prism version 3.02 (Graph Pad Software, San Diego).

For assay [2], the system named is Enterococcus faecalis (ATCC #29212). As to the kind of experiment: Broth microdilution MIC. Particulars: 24 hours; for MIC: Enterococcus faecalis, ATCC29212. On the procedure:
(§1) A broth microdilution assay is used to assess the antimicrobial activity of the compounds. Compounds are tested at twofold serial dilutions, and the concentration that inhibits visible growth (OD600 at 10% of control) is defined as the MIC. Microorganisms tested include Staphylococcus aureus (ATCC #29213), Enterococcus faecalis (ATCC #29212), Pseudomonas aeruginosa (ATCC #27853), and Escherichia coli (ATCC #25922). The assay is performed in two growth media, Mueller Hinton Broth and Trypticase Soy Broth.
(§2) A blood (Tsoy/5% sheep blood) agar plate is inoculated from frozen stocks maintained in T soy broth containing 10% glycerol and incubated overnight at 37° C. Colonies are suspended in sterile broth so that the turbidity matches the turbidity of a 0.5 McFarland standard. The inoculum is diluted 1:10 in sterile broth (Mueller Hinton or Trypticase soy) and 195 ul is dispensed per well of a 96-well plate. The compounds to be tested, dissolved in DMSO, are added to the wells in 5 ul volume at the following concentrations: 25, 12.5, 6.25, 3.125, 1.56 and 0.78 ug/ml in duplicate. Additional concentrations are tested if required. 5 ul of DMSO added to duplicate wells are the vehicle control. Serial dilutions of positive control compounds, vancomycin (E. faecalis and S. aureus) and tobramycin (E. coli and P. aeruginosa), are included in each rum
(§3) After 24 hours of incubation at 37° C., plates are read at OD600 on a Molecular Devices SpectraMax Plus Spectrophotometer. Average OD600 values are computed using SOFTmax Pro Software (Molecular Devices) and MIC values are determined by linear regression analysis using Prism version 3.02 (Graph Pad Software, San Diego). The MIC is defined as the concentration of compound required to produce an OD600 reading equivalent to 10% of the vehicle control reading.
(In broth dilution the organism is exposed to a series of concentrations in liquid medium.)

For assay [3], the system named is Staphylococcus aureus (ATCC #29213). Briefly: Broth microdilution MIC. Particulars: 24 hours; for MIC: Staphylococcus aureus, ATCC29213. On the procedure:
as §1, §2, §3

For assay [4], the system named is Escherichia coli (ATCC #25922). As to the kind of experiment: Broth microdilution MIC. The conditions noted are these: 24 hours; for MIC: Escherichia coli, ATCC25922. The protocol:
as §1, §2, §3

Assay [5] relates to Pseudomonas aeruginosa (ATCC #27853). As to the kind of experiment: Broth microdilution MIC. Particulars: 24 hours; for MIC: Pseudomonas aeruginosa, ATCC27853. On the procedure:
as §1, §2, §3

[6] abbreviates: Mueller Hinton Broth, read-out: EF/MH (MIC).
Setting [7] is: Trypticase Soy Broth, read-out: EF/Tsoy (MIC).
Setting [8] is: Mueller Hinton Broth, read-out: SA/MH (MIC).
Where [9] appears, read: Trypticase Soy Broth, read-out: SA/Tsoy (MIC).
Where [10] appears, read: Trypticase Soy Broth, read-out: Ecoli/Tsoy (MIC).
Setting [11] is: Mueller Hinton Broth, read-out: PSAE/MH (MIC).
Setting [12] is: Trypticase Soy Broth, read-out: PSAE/Tsoy (MIC).

Take `C=CCNC(=O)C1=C(C)C(=O)O[C@H]1CCCCCCCC`: the IC50 in assay [1] was determined as 23.7 µg/mL (≈ 80.8 µM). Also, the MIC in assay [2] (setting [6]) stood at 115 µg/mL (≈ 392 µM); in assay [2] (setting [7]) it was 203 µg/mL (≈ 692 µM); in assay [3] (setting [8]), 79 µg/mL (≈ 269 µM); in assay [3] (setting [9]), 87 µg/mL (≈ 297 µM); in assay [4] (setting [10]), 199 µg/mL (≈ 678 µM); in assay [5] (setting [11]) it was 280 µg/mL (≈ 954 µM). In addition, the MIC in assay [5] (setting [12]) worked out at 137 µg/mL (≈ 467 µM). Besides, the “Ecoli/MH (MIC)” value in assay [4] (Mueller Hinton Broth) is recorded as “Neg”.

Regarding `C=C1C(=O)O[C@@H](CCCCCCCC)[C@@H]1C(=O)NCC(=O)OC` (racemic), the IC50 in assay [1] was 1.3 ± 0.09 µg/mL (≈ 4 µM). For the same molecule, the MIC in assay [2] (setting [6]) came to 80 µg/mL (≈ 246 µM); in assay [2] (setting [7]) it was 245 µg/mL (≈ 753 µM); in assay [3] (setting [8]) it was 4.3 µg/mL (≈ 13.2 µM); in assay [3] (setting [9]), 26 µg/mL (≈ 79.9 µM); in assay [4] (setting [10]), 275 µg/mL (≈ 845 µM). The “Ecoli/MH (MIC)” value in assay [4] (Mueller Hinton Broth) is listed as “Neg”. Further, in assay [5] (Mueller Hinton Broth), the “PSAE/MH (MIC)” value is reported as “Neg”. Further, the “PSAE/Tsoy (MIC)” value in assay [5] (Trypticase Soy Broth) is “Neg”.

On to `C=CCNC(=O)[C@@H]1C(=C)C(=O)O[C@H]1CCCCCCCC` (racemic), for which the IC50 in assay [1] came out at 0.9 ± 0.5 µg/mL (≈ 3.07 µM). Besides, the MIC was determined as 36 µg/mL (≈ 123 µM) in assay [2] (setting [6]), 25 µg/mL (≈ 85.2 µM) in assay [2] (setting [7]), 9.1 ± 1.9 µg/mL (≈ 31 µM) in assay [3] (setting [8]) and 12 ± 0.5 µg/mL (≈ 40.9 µM) in assay [3] (setting [9]). For the same molecule, in assay [5] (Mueller Hinton Broth), the “PSAE/MH (MIC)” value is “Neg”. Moreover, in assay [5] (Trypticase Soy Broth), the “PSAE/Tsoy (MIC)” value is reported as “Neg”.

Regarding `C=CCNC(=O)[C@@H]1C(=C)C(=O)O[C@H]1CCCC` (racemic), the IC50 in assay [1] is 2.2 ± 0.3 µg/mL (≈ 9.27 µM). Moreover, the MIC in assay [2] (setting [6]) amounted to 190 µg/mL (≈ 801 µM); in assay [2] (setting [7]) it was 67 µg/mL (≈ 282 µM); in assay [3] (setting [8]), 65 µg/mL (≈ 274 µM); in assay [3] (setting [9]), 96 µg/mL (≈ 405 µM). Moreover, the “Ecoli/MH (MIC)” value in assay [4] (Mueller Hinton Broth) is “Neg”. For the same molecule, in assay [4] (Trypticase Soy Broth), the “Ecoli/Tsoy (MIC)” value is given as “Neg”. In assay [5] (Mueller Hinton Broth), the “PSAE/MH (MIC)” value is “Neg”. For the same molecule, the “PSAE/Tsoy (MIC)” value in assay [5] (Trypticase Soy Broth) was “Neg”.

As for `C=C1C(=O)O[C@@H](CCCCCCCC)[C@@H]1C(=O)NCC(=O)O` (racemic), the IC50 in assay [1] was over 50 µg/mL. For the same molecule, the MIC in assay [2] (setting [6]) stood at 219 µg/mL (≈ 703 µM); in assay [2] (setting [7]), 215 µg/mL (≈ 690 µM); in assay [3] (setting [8]) it was 72 µg/mL (≈ 231 µM); in assay [3] (setting [9]), 52 µg/mL (≈ 167 µM); in assay [4] (setting [10]), 235 µg/mL (≈ 755 µM). In assay [4] (Mueller Hinton Broth), the “Ecoli/MH (MIC)” value is on record as “Neg”. Moreover, in assay [5] (Mueller Hinton Broth), the “PSAE/MH (MIC)” value is given as “Neg”. In addition, the “PSAE/Tsoy (MIC)” value in assay [5] (Trypticase Soy Broth) is “Neg”.

Turning to `C=CCNC(=O)[C@@H]1C(=C)C(=O)O[C@H]1CCCCCC` (racemic), in assay [1], the IC50 turned out to be 0.85 ± 0.08 µg/mL (≈ 3.2 µM). For the same molecule, the MIC was 103 µg/mL (≈ 388 µM) in assay [2] (setting [6]), 38 µg/mL (≈ 143 µM) in assay [2] (setting [7]), 49 µg/mL (≈ 185 µM) in assay [3] (setting [8]) and 47 µg/mL (≈ 177 µM) in assay [3] (setting [9]). Further, in assay [4] (Mueller Hinton Broth), the “Ecoli/MH (MIC)” value is “Neg”. Moreover, the “Ecoli/Tsoy (MIC)” value in assay [4] (Trypticase Soy Broth) is recorded as “Neg”. The “PSAE/MH (MIC)” value in assay [5] (Mueller Hinton Broth) is recorded as “Neg”. The “PSAE/Tsoy (MIC)” value in assay [5] (Trypticase Soy Broth) is on record as “Neg”.

For `C=C1C(=O)O[C@@H](CCCCCCCC)[C@@H]1C(=O)NCCO` (racemic), in assay [1], the IC50 is 2.2 ± 1 µg/mL (≈ 7.4 µM). The MIC was 77 µg/mL (≈ 259 µM) in assay [2] (setting [7]), 44 µg/mL (≈ 148 µM) in assay [3] (setting [8]) and 48 µg/mL (≈ 161 µM) in assay [3] (setting [9]). The “EF/MH (MIC)” value in assay [2] (Mueller Hinton Broth) is given as “Neg”. Besides, the “Ecoli/MH (MIC)” value in assay [4] (Mueller Hinton Broth) was “Neg”. The “Ecoli/Tsoy (MIC)” value in assay [4] (Trypticase Soy Broth) was “Neg”. In assay [5] (Mueller Hinton Broth), the “PSAE/MH (MIC)” value is “Neg”. In assay [5] (Trypticase Soy Broth), the “PSAE/Tsoy (MIC)” value is listed as “Neg”.

`CCCCCCCCC1OC(=O)[C@H](C)[C@H]1C(=O)O` (some centres unmarked): the half-inhibitory concentration (IC50) in assay [1] was determined as 49 µg/mL (≈ 191 µM). Besides, the MIC in assay [2] (setting [6]) is 109 µg/mL (≈ 425 µM); in assay [2] (setting [7]) it was 94 µg/mL (≈ 367 µM); in assay [3] (setting [8]), 43 µg/mL (≈ 168 µM); in assay [3] (setting [9]) it was 60 µg/mL (≈ 234 µM). For the same molecule, the “Ecoli/MH (MIC)” value in assay [4] (Mueller Hinton Broth) was “Neg”. Besides, the “Ecoli/Tsoy (MIC)” value in assay [4] (Trypticase Soy Broth) is given as “Neg”. Further, the “PSAE/MH (MIC)” value in assay [5] (Mueller Hinton Broth) is given as “Neg”. Besides, the “PSAE/Tsoy (MIC)” value in assay [5] (Trypticase Soy Broth) was “Neg”.

On to `C=CCNC(=O)[C@H]1[C@H](CCCCCCCC)OC(=O)[C@H]1C` (racemic), for which the IC50 in assay [1] was found to be 43.9 ± 4.8 µg/mL (≈ 149 µM). Further, the MIC in assay [2] (setting [6]) stood at 91 µg/mL (≈ 308 µM); in assay [2] (setting [7]), 114 µg/mL (≈ 386 µM); in assay [3] (setting [8]) it was 107 µg/mL (≈ 362 µM); in assay [4] (Mueller Hinton Broth, read-out: Ecoli/MH (MIC)), 108 µg/mL (≈ 366 µM). Moreover, the “SA/Tsoy (MIC)” value in assay [3] (Trypticase Soy Broth) was “Neg”. Besides, in assay [4] (Trypticase Soy Broth), the “Ecoli/Tsoy (MIC)” value is reported as “Neg”. Moreover, the “PSAE/MH (MIC)” value in assay [5] (Mueller Hinton Broth) is given as “Neg”. Also, the “PSAE/Tsoy (MIC)” value in assay [5] (Trypticase Soy Broth) was “Neg”.

On to `CCCCCCCCC1OC(=O)[C@@H](C)[C@H]1C(=O)O` (some centres unmarked), for which the IC50 in assay [1] is over 50 µg/mL.

With `C=CCNC(=O)[C@H]1[C@H](CCCCCCCC)OC(=O)[C@@H]1C` (racemic), the IC50 in assay [1] was 30 µg/mL (≈ 102 µM). Further, the MIC in assay [2] (setting [6]) is 84 µg/mL (≈ 284 µM); in assay [3] (setting [8]), 80 µg/mL (≈ 271 µM); in assay [3] (setting [9]), 193 µg/mL (≈ 653 µM); in assay [4] (setting [10]), 155 µg/mL (≈ 525 µM); in assay [5] (setting [11]), 218 µg/mL (≈ 738 µM); in assay [5] (setting [12]), 160 µg/mL (≈ 542 µM). For the same molecule, the “EF/Tsoy (MIC)” value in assay [2] (Trypticase Soy Broth) is recorded as “Neg”. For the same molecule, the “Ecoli/MH (MIC)” value in assay [4] (Mueller Hinton Broth) is recorded as “Neg”.

In general, IC50 refers to the concentration needed to halve the response being measured.
